Laboratory results reported in patent US20190030039A1, “PREVENTION OF SSRI-INDUCED GASTROINTESTINAL DYSFUNCTION WITH A 5-HT4 RECEPTOR ANTAGONIST” (The Trustees of Columbia University in the City of New York, priority 2016, published 2019).

How the values were obtained:
[1] = test system: mice; test: Novelty-suppressed feeding (NSF) test, measurement of anxiety; format: in vivo, mouse; conditions: FIGS. 3A-3D
Description: FIGS. 3A-3D are a series of bar graphs showing results from the novelty-suppressed feeding (NSF) test, a measurement of anxiety. Maternal dams were administered either water (control), Fluoxetine (SSRI), or both Fluoxetine and Piboserod (SSRI+Pibo) from E1 through weaning from breastfeeding. Pups were thus exposed to aforementioned medications during gestation and breastfeeding. Once pups were weaned, at P21, they were not given any medications. The pups were evaluated at 6-8 weeks of age to rule out acute drug effects. The NSF test began with a short term food restriction of 18 hours (water was still available). After the test, mice were given food ad libitum again. The NSF test is a “conflict” test, which assesses the competing motivations of the animal to explore (forage) for food versus remain in the safety of the periphery of the arena. Mice were placed into a white box with shavings on the floor and two food pellets placed on a circle of filter paper in the center of the arena. The latency to chew the food is the measure of anxiety. Measured times included time to reach the filter paper with the food pellet on it (“time to filter”), time to touch/smell the pellet (“time to pellet”), time to bite the pellet (“time to bite”) and time to sit and eat the pellet (“time to sit and eat”). […]

[2] = test system: mice; test: Sucrose preference test, measurement of depression; format: in vivo, mouse; conditions: FIG. 4
Description: FIG. 4 is a bar graph showing results from the sucrose preference test, a measurement of depression in mice. Maternal dams were administered either water (control), Fluoxetine (SSRI), or both Fluoxetine and Piboserod (SSRI+Pibo) from E1 through weaning from breastfeeding. Pups were thus exposed to aforementioned medications during gestation and breastfeeding. Once pups were weaned, at P21, they were not given any medications. The pups were evaluated at 6-8 weeks of age to rule out acute drug effects. For the sucrose preference test, mice were trained for 2 days to drink diluted sucrose and water from serological pipettes with sippers attached and testing was done on day 3. The volumes of sucrose and water consumed overnight were recorded. A reduced preference for sucrose solution over plain water represents anhedonia.
(§1) In the present invention, the serotonin-4 receptor (5-HT4R) has been identified as a critical player in SERT modulation, ENS and CNS development and GI function. […] (FIGS. 1-2). […] Administration of a 5-HT4R antagonist during neurodevelopment thus corrects the long-lasting gastrointestinal motility and behavioral defects caused by developmental exposure to SSRls.

[3] = at birth; in utero exposure; cited from earlier work
[4] = test system: mice; test: Colonic transit time (glass bead expulsion) in pups exposed during gestation and breastfeeding; format: in vivo; conditions: Piboserod given to mouse mothers during pregnancy and breastfeeding concomitantly with Fluoxetine; pups evaluated at 6-8 weeks; FIG. 2
Description: FIG. 2 is a bar graph showing colonic transit time (expressed as percentage of control). Maternal dams were administered either water (control), Fluoxetine (SSRI), or both Fluoxetine and Piboserod (SSRI+Pibo) from E1 through weaning from breastfeeding. Pups were thus exposed to aforementioned medications during gestation and breastfeeding. Once pups were weaned, at P21, they were not given any medications. Pups were evaluated at 6-8 weeks of age to rule out acute drug effects. Colonic transit time was measured by inserting a 2 mm glass bead 4 cm into the rectum and calculating the time it took for bead expulsion to occur.
as §1

[5] = test system: mice; test: Total intestinal transit time (Rhodamine B bolus) in pups exposed during gestation and breastfeeding; format: in vivo; conditions: Piboserod given to mouse mothers during pregnancy and breastfeeding concomitantly with Fluoxetine; pups evaluated at 6-8 weeks; FIG. 1
Description: FIG. 1 is a bar graph showing total intestinal transit time (expressed as percentage of control). Maternal dams were administered either water (control), Fluoxetine (SSRI), or both Fluoxetine and Piboserod (SSRI+Pibo) from embryonic day 1 (E1) through weaning from breastfeeding. Pups were thus exposed to aforementioned medications during gestation and breastfeeding. Once pups were weaned, at postnatal day 21 (P21), they were not given any medications. Pups were then evaluated at 6-8 weeks of age to rule out acute drug effects. Total intestinal transit time was measured by administering a bolus of Rhodamine B (time 0) and calculating the amount of time until the rhodamine was found in the stool.
as §1

[6] = mice exposed to Fluoxetine in utero and during breastfeeding, evaluated at 6-8 weeks
[7] = mice exposed to Piboserod and Fluoxetine concomitantly in utero and during breastfeeding

| levels of anxiety (novelty-suppressed feeding) [1, 6] | levels of depression (sucrose preference test) [2, 6] | SMILES | plasma Fluoxetine levels in newborns, of maternal levels [3] | anxiety behavior (novelty-suppressed feeding) [1, 7] | depression behavior (sucrose preference test) [2, 7] | colonic motility [4] | total intestinal transit [5] |
| --- | --- | --- | --- | --- | --- | --- | --- |
| increased levels | increased levels | CNCCC(Oc1ccc(C(F)(F)F)cc1)c1ccccc1 (stereo not shown) [Fluoxetine] | approximately 70% | – | – | – | – |
| – | – | CCCCN1CCC(CNC(=O)c2c3n(c4ccccc24)CCCO3)CC1 [Piboserod] | – | behaviorally comparable to control mice | behaviorally comparable to control mice | comparable with control mice | comparable with control mice |
